From US8969542B2, “HPV polyepitope constructs and uses thereof” (priority 2007, dated 2015)
Where no end group is shown, it is not given here.

Key:
[1] = biological target: HLA A2601 (Homo sapiens, UniProt P04439, A114D/A173T/A270S/D101N/D185E/E277Q/E87N/F33Y/G231S/I121R/I218V/K168Q/L180W/L300P/L318F/P208A/P217A/Q86R/Q94H/R138Q/S129P/T187R/T323A/T345S/V100A/V358M); experiment: HLA class I competition binding assay using soluble HLA
[2] = biological target: HLA A3002 (Homo sapiens, UniProt P04439, D101N/D140H/D185E/E176R/F33S/G80R/H175R/K168Q/Q94H/R138E/R41S/V100E); experiment: as above
[3] = biological target: HLA A2902 (Homo sapiens, UniProt P04439, A270S/D101N/D185E/E176V/E277Q/E87Q/F33T/G231S/H175R/I121M/I218V/I322F/K168Q/L300P/L318F/M331R/P208A/P217A/Q86L/T323A/T345S/V100A/V358M); experiment: as above
[4] = biological target: HLA A0201 (Homo sapiens, UniProt P04439, D140Y/D185E/D98H/E176V/E277Q/G131W/G231S/I119V/I121R/I166T/I218V/L300P/L318F/N151K/N90K/P208A/P217A/Q86G/Q94H/R138H/R169H/T345S); experiment: as above
[5] = biological target: HLA A0203 (Homo sapiens, UniProt P04439, A173T/D140Y/D185E/D98H/E277Q/G131W/G231S/I119V/I121R/I166T/I218V/L180W/L300P/L318F/N151K/N90K/P208A/P217A/Q86G/Q94H/R138H/R169H/T345S); experiment: as above
[6] = biological target: HLA A6802 (Homo sapiens, UniProt P04439, A269V/D140Y/D185E/E176V/E277Q/E87N/F33Y/G231S/I121R/I166T/I218V/L180W/L300P/L318F/N151K/P208A/P217A/Q86R/R138H/R169H/S129P/T345S/V36M); experiment: as above
[7] = biological target: HLA A6801 (Homo sapiens, UniProt P04439, A269V/D185E/E176V/E277Q/E87N/F33Y/G231S/I121M/I166T/I218V/L180W/L300P/L318F/N151K/P208A/P217A/Q86R/R169H/T345S); experiment: as above
[8] = biological target: HLA A1101 (Homo sapiens, UniProt P04439, A114D/D185E/E176A/F33Y/L180Q/S129P/T187R); experiment: as above
[9] = biological target: HLA A3101 (Homo sapiens, UniProt P04439, A270S/D185E/E176V/E277Q/F33T/G231S/G80R/H175R/I121M/I218V/I322F/K168Q/L300P/L318F/M331R/P217A/Q94H/R138Q/T323A/T345S/T97I/V358M); experiment: as above
[10] = biological target: DRB1*0901 (Homo sapiens, UniProt P01903+P01911, A100R/A103E/D57H/D86V/F55Y/F60I/F76Y/I96F/K127E/L162R/M171V/P40D/Q125H/Q99R/R33Q/R42F/S133A/S66N/T210M/V115G/W38K/Y107V/Y59G/Y89S); experiment: biochemical
[11] = biological target: DRB5*0101 (DR2w2beta-2) (Homo sapiens, UniProt P01903+Q30154); experiment: biochemical
[12] = biological target: HLA A3301 (Homo sapiens, UniProt P04439, A270S/D185E/E176V/E277Q/E87N/F33T/G231S/H175R/I121M/I218V/I322F/K168Q/K210R/L300P/L318F/M331R/P217A/Q86R/Q94H/R138Q/T323A/T345S/T97I/V358M/Y195H); experiment: HLA class I competition binding assay using soluble HLA
[13] = biological target: T1, HLA A0301 (Homo sapiens, UniProt P04439); experiment: as above
T1 construct: endogenous in cells

[14] = biological target: HLA A0202 (Homo sapiens, UniProt P04439, D140Y/D185E/D98H/E176V/E277Q/G131W/G231S/I119L/I121R/I166T/I218V/L180W/L300P/L318F/N151K/N90K/P208A/P217A/Q67R/Q86G/Q94H/R138H/R169H/T345S); experiment: as above
[15] = biological target: HLA A0206 (Homo sapiens, UniProt P04439, D140Y/D185E/D98H/E176V/E277Q/F33Y/G131W/G231S/I119V/I121R/I166T/I218V/L300P/L318F/N151K/N90K/P208A/P217A/Q86G/Q94H/R138H/R169H/T345S); experiment: as above

## CC(C)C[C@H](NC(=O)CNC(=O)[C@@H](NC(=O)[C@H](CC(N)=O)NC(=O)[C@@H](NC(=O)[C@H](CC(C)C)NC(=O)[C@H](CCCCN)NC(=O)[C@H](CCC(=O)O)NC(=O)[C@H](CC(C)C)NC(=O)[C@@H](N)[C@@H](C)O)[C@@H](C)O)[C@@H](C)O)C(=O)N[C@@H](Cc1ccc(O)cc1)C(=O)O [compound 26]
[1]
  IC50: 0.265 µM
[2]
  IC50: 0.476 µM
[3]
  IC50: 2.38 µM

## CC[C@H](C)[C@H](NC(=O)[C@H](CC(=O)O)NC(=O)[C@H](CCC(N)=O)NC(=O)[C@H](CC(C)C)NC(=O)[C@@H](N)CO)C(=O)N[C@@H](CCC(=O)O)C(=O)N[C@H](C(=O)N[C@H](C(=O)N[C@@H](CS)C(=O)N[C@H](C(=O)O)C(C)C)[C@@H](C)O)[C@@H](C)CC [compound 30]
[4]
  IC50: 0.153 µM
[5]
  IC50: 0.038 µM
[6]
  IC50: > 20 µM

## CC[C@H](C)[C@H](N)C(=O)N[C@@H](CO)C(=O)N[C@@H](Cc1ccccc1)C(=O)N[C@@H](C)C(=O)NCC(=O)N[C@H](C(=O)N[C@H](C(=O)N[C@H](C(=O)N[C@@H](CCCCN)C(=O)O)[C@@H](C)O)C(C)C)[C@@H](C)CC [compound 57]
[7]
  IC50: 0.016 µM
[8]
  IC50: 0.0016 µM
[9]
  IC50: 0.115 µM

## CC[C@H](C)[C@H](NC(=O)CNC(=O)[C@@H](NC(=O)[C@H](CCCCN)NC(=O)[C@H](Cc1ccc(O)cc1)NC(=O)[C@H](Cc1c[nH]c2ccccc12)NC(=O)[C@H](Cc1ccc(O)cc1)NC(=O)[C@@H](N)CC(C)C)[C@@H](C)O)C(=O)N[C@@H](CO)C(=O)N[C@@H](CC(N)=O)C(=O)N[C@H](C(=O)N[C@@H](CO)C(=O)N[C@@H](CCC(=O)O)C(=O)N[C@H](C(=O)N[C@@H](Cc1ccc(O)cc1)C(=O)O)C(C)C)[C@@H](C)CC [compound 89]
[10]
  IC50: 0.09 µM

## CC[C@H](C)[C@H](NC(=O)[C@@H](NC(=O)[C@H](CC(C)C)NC(=O)[C@H](CC(=O)O)NC(=O)[C@@H](NC(=O)[C@H](Cc1ccccc1)NC(=O)[C@H](C)NC(=O)[C@H](Cc1ccccc1)NC(=O)[C@H](CC(=O)O)NC(=O)[C@H](CC(C)C)NC(=O)[C@@H](N)C(C)C)[C@@H](C)O)[C@@H](C)O)C(=O)N[C@H](C(=O)N[C@@H](Cc1ccc(O)cc1)C(=O)N[C@@H](CCCNC(=N)N)C(=O)N[C@@H](CC(=O)O)C(=O)O)C(C)C [compound 111]
[11]
  IC50: > 20 µM

## CC[C@H](C)[C@H](NC(=O)[C@H](Cc1c[nH]cn1)NC(=O)[C@H](C)NC(=O)[C@H](Cc1ccc(O)cc1)NC(=O)[C@H](CC(C)C)NC(=O)[C@@H](NC(=O)[C@H](C)NC(=O)[C@@H]1CCCN1C(=O)[C@H](CCCCN)NC(=O)[C@@H](NC(=O)[C@H](CC(C)C)NC(=O)[C@@H](NC(=O)[C@H](CCCCN)NC(=O)[C@@H](N)Cc1ccccc1)[C@@H](C)O)[C@@H](C)CC)[C@@H](C)O)C(=O)N[C@@H](CCC(N)=O)C(=O)O [compound 115]
[11]
  IC50: 1 µM

## AATKYPLLK [compound 17]
[7]
  IC50: > 20 µM
[12]
  IC50: > 20 µM
[8]
  IC50: 0.02 µM
[9]
  IC50: > 20 µM

## ATCVSHRGLY [compound 25]
[1]
  IC50: 0.646 µM

## ATTPIIHLK [compound 58]
[7]
  IC50: 0.0025 µM
[12]
  IC50: > 20 µM
[8]
  IC50: 0.0012 µM
[13]
  IC50: 0.01 µM
[9]
  IC50: 0.034 µM

## AVMCRHYKR [compound 78]
[7]
  IC50: 0.029 µM
[8]
  IC50: 0.038 µM
[13]
  IC50: 0.311 µM

## CLYLHIQSL [compound 6]
[14]
  IC50: 0.045 µM
[15]
  IC50: 0.1 µM
[6]
  IC50: 1.78 µM

## ELDPVDLLCY [compound 71]
[1]
  IC50: 2.11 µM
[2]
  IC50: > 20 µM

## FIYIPLFVI [compound 52]
[4]
  IC50: 0.026 µM
[5]
  IC50: 0.047 µM
[15]
  IC50: 0.0081 µM
[6]
  IC50: 0.157 µM

## FLFTDLTIV [compound 53]
[14]
  IC50: 0.0013 µM
[5]
  IC50: 0.0035 µM
[15]
  IC50: 0.02 µM
[6]
  IC50: 1.9 µM

## FVVYRDSIPK [compound 36]
[7]
  IC50: 0.176 µM
[12]
  IC50: 0.473 µM
[8]
  IC50: 2.5 µM
[13]
  IC50: 3.44 µM
[9]
  IC50: 0.008 µM

## FVYIPLFLI [compound 8]
[4]
  IC50: 0.206 µM
[14]
  IC50: 0.323 µM
[5]
  IC50: 0.063 µM
[6]
  IC50: 0.251 µM

## GTLGIVCPV [compound 11]
[4]
  IC50: 0.02 µM

## ILYAHIQCL [compound 27]
[14]
  IC50: 0.0085 µM
[15]
  IC50: 0.236 µM
[6]
  IC50: > 20 µM

## KLLEKLLCI [compound 49]
[5]
  IC50: 0.0024 µM

## KLLSKLLCV [compound 7]
[4]
  IC50: 0.031 µM

## KLTNKGICDL [compound 54]
[14]
  IC50: 0.44 µM
[5]
  IC50: 0.585 µM
[15]
  IC50: 0.484 µM
[6]
  IC50: > 20 µM

## KLTNTGLYNV [compound 31]
[14]
  IC50: 0.0029 µM
[15]
  IC50: 0.083 µM
[6]
  IC50: 0.688 µM

## KVSEFRWYRY [compound 59]
[7]
  IC50: 0.192 µM
[12]
  IC50: 0.338 µM
[13]
  IC50: 0.213 µM
[9]
  IC50: 0.003 µM

## LQDKILDHY [compound 67]
[1]
  IC50: 5 µM
[2]
  IC50: 0.836 µM

## LSQMVQWAY [compound 1]
[1]
  IC50: 6.45 µM
[2]
  IC50: 0.00093 µM

## LTDVSIACVY [compound 69]
[1]
  IC50: 8.2 µM

## QTEPDTSNY [compound 48]
[1]
  IC50: > 20 µM

## SLVFLLCFSV [compound 74]
[4]
  IC50: 0.0085 µM
[6]
  IC50: 0.02 µM

## STAAALYWYR [compound 56]
[7]
  IC50: 0.012 µM
[12]
  IC50: 0.047 µM
[8]
  IC50: 0.01 µM
[13]
  IC50: 0.198 µM
[9]
  IC50: 0.0056 µM

## STWHWTGCNK [compound 80]
[12]
  IC50: 0.428 µM
[8]
  IC50: 0.0028 µM

## SVICFVNSK [compound 16]
[7]
  IC50: 0.0054 µM
[12]
  IC50: 0.051 µM
[8]
  IC50: 0.0022 µM

## SVYGETLEK [compound 83]
[7]
  IC50: 0.0072 µM
[8]
  IC50: 0.0095 µM
[9]
  IC50: 6.51 µM

## SVYGTTLER [compound 60]
[7]
  IC50: 0.004 µM
[12]
  IC50: 0.853 µM
[8]
  IC50: 0.007 µM
[13]
  IC50: 0.022 µM
[9]
  IC50: 0.075 µM

## TLHDIILECV [compound 9]
[4]
  IC50: 0.0036 µM
[14]
  IC50: 0.00054 µM
[5]
  IC50: 0.0019 µM
[15]
  IC50: 0.092 µM
[6]
  IC50: 2.95 µM

## TLQEIVLHV [compound 77]
[14]
  IC50: 0.03 µM
[5]
  IC50: 0.0051 µM
[6]
  IC50: 2.46 µM

## TLYAHIQCL [compound 72]
[4]
  IC50: 0.034 µM

## TVYVFCFLL [compound 29]
[4]
  IC50: 0.175 µM
[14]
  IC50: 0.587 µM
[5]
  IC50: 0.769 µM
[15]
  IC50: 0.026 µM

## VVLLLVRYK [compound 12]
[7]
  IC50: 0.076 µM
[12]
  IC50: 0.0061 µM
[8]
  IC50: 0.0041 µM
[13]
  IC50: 0.0063 µM
[9]
  IC50: 0.0001 µM

## YQFAFKDLCV [compound 76]
[14]
  IC50: 0.0013 µM
[5]
  IC50: 0.0042 µM
[15]
  IC50: 0.01 µM
[6]
  IC50: 3.7 µM

## YVVWDSIYYI [compound 73]
[5]
  IC50: 0.248 µM
[15]
  IC50: 0.02 µM
[6]
  IC50: 0.03 µM
